# Assay results: US10745401B2, “Condensed lactam derivative” (Sumitomo Dainippon Pharma Co., Ltd., priority 2018, dated 2020)
# How the values were obtained:
# [1] = molecular target: human D2 receptor (Homo sapiens (Human), UniProt P14416); experiment: Test 1: binding activity for human D2 receptor ([3H]Spiperone, CHO cell membrane fraction); conditions: human D2 receptor, [3H]Spiperone
# Outline: (§1)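 CHO-cell membranes with [3H]ketanserin (5-HT2A) or [3H]spiperone (D2) were incubated with compound for 60 min at room temperature, then filtered, and bound radioactivity was counted by scintillation. Ki = IC50/(1+S/Kd), with ligand Kd from saturation binding on the same membranes.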
# [2] = molecular target: T1, human 5-HT1A receptor (Homo sapiens (Human), UniProt P08908); experiment: Test 1: binding activity for human 5-HT1A receptor ([3H]8-OH-DPAT, CHO cell membrane fraction)
# T1 sequence (P08908 whole entry): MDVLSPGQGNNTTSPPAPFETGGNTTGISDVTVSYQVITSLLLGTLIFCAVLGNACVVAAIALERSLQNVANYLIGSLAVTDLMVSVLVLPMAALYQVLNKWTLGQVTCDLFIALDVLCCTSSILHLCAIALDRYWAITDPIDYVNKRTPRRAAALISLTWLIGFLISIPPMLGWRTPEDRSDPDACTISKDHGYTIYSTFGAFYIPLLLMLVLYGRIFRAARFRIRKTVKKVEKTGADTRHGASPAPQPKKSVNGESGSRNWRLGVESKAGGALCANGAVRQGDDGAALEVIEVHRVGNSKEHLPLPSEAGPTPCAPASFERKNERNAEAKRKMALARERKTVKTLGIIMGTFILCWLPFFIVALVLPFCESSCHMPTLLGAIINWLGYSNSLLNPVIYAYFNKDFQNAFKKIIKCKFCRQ
# Outline: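 Membranes incubated with [3H]8-OH-DPAT and compound for 60 min at room temperature, then filtered on polyethylenimine-coated glass-fibre plates and counted by liquid scintillation. IC50 from Hill analysis; Ki = IC50/(1+S/Kd), Kd from saturation binding on the same membranes.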
# [3] = molecular target: T2, hERG channel (Homo sapiens (Human), UniProt Q12809); experiment: Test 6-2: inhibitory activity for hERG channel (auto patch clamp, Qube); format: cell-based; conditions: Test 6-2, hERG-CHO cells, whole cell patch clamp; read-out: hERG inhibition IC50
# T2 sequence (Q12809 whole entry): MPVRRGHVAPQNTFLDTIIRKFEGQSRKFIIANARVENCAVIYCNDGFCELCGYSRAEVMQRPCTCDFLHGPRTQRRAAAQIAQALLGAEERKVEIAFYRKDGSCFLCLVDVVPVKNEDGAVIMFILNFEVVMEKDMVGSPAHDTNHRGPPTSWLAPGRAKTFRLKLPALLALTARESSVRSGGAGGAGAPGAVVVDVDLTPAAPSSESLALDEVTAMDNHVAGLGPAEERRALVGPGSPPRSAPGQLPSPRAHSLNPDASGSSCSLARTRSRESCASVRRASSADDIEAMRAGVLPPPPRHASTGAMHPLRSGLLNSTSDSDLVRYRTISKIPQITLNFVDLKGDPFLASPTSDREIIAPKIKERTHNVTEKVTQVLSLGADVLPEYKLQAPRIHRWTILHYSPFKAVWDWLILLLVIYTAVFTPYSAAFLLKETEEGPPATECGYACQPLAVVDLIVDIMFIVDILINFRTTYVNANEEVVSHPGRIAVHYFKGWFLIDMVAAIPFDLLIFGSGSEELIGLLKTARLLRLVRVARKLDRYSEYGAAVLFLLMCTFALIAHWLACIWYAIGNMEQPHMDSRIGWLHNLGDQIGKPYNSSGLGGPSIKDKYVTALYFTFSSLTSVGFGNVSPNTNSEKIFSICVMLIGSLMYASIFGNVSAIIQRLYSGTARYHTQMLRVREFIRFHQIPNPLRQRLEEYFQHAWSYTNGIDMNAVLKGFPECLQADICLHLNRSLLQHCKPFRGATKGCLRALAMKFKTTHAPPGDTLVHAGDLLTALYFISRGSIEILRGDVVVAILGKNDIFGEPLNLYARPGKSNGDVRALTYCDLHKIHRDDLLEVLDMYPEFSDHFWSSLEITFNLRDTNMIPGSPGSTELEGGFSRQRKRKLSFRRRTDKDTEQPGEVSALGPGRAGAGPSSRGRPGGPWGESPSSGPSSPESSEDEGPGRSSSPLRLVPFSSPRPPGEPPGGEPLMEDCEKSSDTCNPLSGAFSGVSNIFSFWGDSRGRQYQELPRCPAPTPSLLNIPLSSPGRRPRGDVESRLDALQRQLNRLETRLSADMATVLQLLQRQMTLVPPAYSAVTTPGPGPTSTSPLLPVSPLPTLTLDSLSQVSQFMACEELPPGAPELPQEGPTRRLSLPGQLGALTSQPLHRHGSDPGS
# Description: Extracellular fluid: 2 mmol/L CaCl2, 1 mmol/L MgCl2, 10 mmol/L HEPES, 4 mmol/L KCl, 145 mmol/L NaCl, 10 mmol/L Glucose
# (Measurement of Current Value and Data Analysis)
# The cell suspension, the extracellular fluid, the intracellular fluid, and the measurement plate were set in the auto patch clamp system, and hERG current was measured by whole cell patch clamp method. […] Each pulse interval was 15 seconds. […] The test was carried out by applying incrementally 4 concentrations of each test compound, and the average of the maximum peak tail currents which were obtained from the last 3 stimulations in each concentration was determined as the evaluated data. Based on the current inhibition rate for a pre-applied current at each concentration of each test compound, IC50 value was calculated by Hill equation with the software.
# [4] = molecular target: T1, human 5-HT1A receptor; experiment: Test 2: agonist activity for human 5-HT1A receptor ([35S]GTPγS binding); format: biochemical; conditions: for EC50: [35S]GTPγS binding, concentration at which half the activity of Emax was obtained; for Emax at 10 µM: agonist activity in the presence of 10 μM of compound, relative to 100 μmol/L 5-HT
# Outline: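 Membranes from CHO cells expressing human 5-HT1A incubated with compound, GDP-containing buffer and [35S]GTPγS for 60 min at room temperature. Bound radioactivity collected by glass-fibre filtration and counted by liquid scintillation; agonist activity derived from a formula.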
# [5] = Test 4: metabolic stability test in human hepatic microsome; format: in vitro ADME; conditions: 0.1 mg/mL microsome, 0.1 μmol/L compound, 37° C., 30 minutes
# Outline: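 Compound at 0.1 μmol/L incubated 30 min at 37° C with human liver microsomes (0.1 mg/mL) and NADPH (3.2 mmol/L) in 25 mmol/L phosphate buffer, pH 7.4. Residual compound measured by LC-MS; stability (mL/min/mg protein) = −LN(residual ratio)/30/0.1.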
# [6] = molecular target: T3, human 5-HT2A receptor (Homo sapiens (Human), UniProt P28223); experiment: Test 3: antagonist activity for human 5-HT2A receptor (aequorin luminescence, CHO-K1 cells); format: cell-based; conditions: CHO-K1 cells, 1 nmol/L 5-HT
# T3 sequence (P28223 whole entry): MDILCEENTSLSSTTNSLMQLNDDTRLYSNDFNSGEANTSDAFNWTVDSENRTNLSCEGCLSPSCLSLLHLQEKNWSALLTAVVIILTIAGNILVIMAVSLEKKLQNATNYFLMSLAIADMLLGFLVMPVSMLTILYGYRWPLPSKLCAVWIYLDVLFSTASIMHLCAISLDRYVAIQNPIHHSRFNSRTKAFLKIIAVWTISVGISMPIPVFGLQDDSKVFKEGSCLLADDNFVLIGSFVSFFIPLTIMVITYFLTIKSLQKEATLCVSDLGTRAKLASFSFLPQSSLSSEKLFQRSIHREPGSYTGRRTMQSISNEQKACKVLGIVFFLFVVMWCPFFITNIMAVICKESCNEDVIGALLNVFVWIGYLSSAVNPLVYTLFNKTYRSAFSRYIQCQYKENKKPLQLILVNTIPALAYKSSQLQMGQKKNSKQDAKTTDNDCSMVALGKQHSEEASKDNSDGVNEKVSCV
# Outline: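 CHO-K1 cells transiently co-expressing aequorin, Gα16 and receptor; compound in DMSO added and luminescence recorded on FDSS/μCELL.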
# [7] = molecular target: T2, hERG channel; experiment: Test 6-1: inhibitory activity for hERG channel (auto patch clamp, Qpatch); format: cell-based; conditions: whole cell auto patch clamp, hERG-CHO cells; read-out: hERG inhibition IC50
# Outline: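 Whole-cell patch clamp on an automated system using CHO cells stably expressing human hERG (IKr); 15 s pulse interval. Four increasing compound concentrations applied cumulatively; mean peak tail current from last 3 stimulations per concentration used. IC50 from inhibition versus pre-compound current, fitted by Hill equation.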
# [8] = molecular target: T3, human 5-HT2A receptor; experiment: Test 1: binding activity for human 5-HT2A receptor ([3H]Ketanserin, CHO cell membrane fraction)
# Outline: as §1
# [9] = Test 5: predictive test of human half-life (monkey distribution volume, serum unbound fraction, microsomal stability); format: in vivo; conditions: predicted from cynomolgus monkey distribution volume (i.v.), serum unbound fraction and human hepatic microsome stability
# Description: Test 5: Predictive Test of Human Half-Life
# The present compound was intravenously administered to cynomolgus monkey as an aqueous solution in 0.01 mol/L hydrochloric acid. Blood was collected on 5 minutes, 15 minutes, 30 minutes, 1 hour, 2 hours, 4 hours, 6 hours, and 24 hours after the administration. Plasma was obtained from the collected blood, the drug concentration in the plasma was measured by LC-MS, and the distribution volume of monkey was calculated from the transition of the concentration.
# The unbound fraction rate of the present compound in human or monkey serum was measured by equilibrium dialysis method.
# The half-life in human was calculated according to the following formula using the results of the distribution volume of monkey, the unbound fraction rate in human or monkey serum, and the metabolic stability in human hepatic microsome obtained in Test 3.
# [10] = Test 10: intracerebral transferability of rats (Kp,uu,brain); format: in vivo, rat; conditions: unbound drug concentration ratio brain/plasma
# Description: Test 10: Evaluation of Intracerebral Transferability (Test for Intracerebral Transferability of Rats)
# In this test, intracerebral transferability of the present compounds was evaluated by the following method. The present compounds were subcutaneously administered as a solution in saline, or orally administered as a suspension in methyl cellulose to 7-week-old SD or WKY rats. Plasma and brain were collected on 0.5 hours, 1 hour, or 2 hours after the administration to measure the drug concentrations in plasma and brain by LC-MS.
# Binding rates of the present compound to plasma and brain protein were measured by equilibrium dialysis method.
# Kp,uu,brain (unbound drug concentration ratio between brain/plasma) can be calculated by applying the compound concentrations in plasma and brain and the binding rates to plasma and brain protein obtained from the above test into the following formula. Kp,uu,brain=(Compound concentration in brain×(100−Binding rate to brain protein (%))/100)/(Compound concentration in plasma×(100−Binding rate to plasma protein (%))/100)
# human D2 receptor, sequence (P14416 whole entry): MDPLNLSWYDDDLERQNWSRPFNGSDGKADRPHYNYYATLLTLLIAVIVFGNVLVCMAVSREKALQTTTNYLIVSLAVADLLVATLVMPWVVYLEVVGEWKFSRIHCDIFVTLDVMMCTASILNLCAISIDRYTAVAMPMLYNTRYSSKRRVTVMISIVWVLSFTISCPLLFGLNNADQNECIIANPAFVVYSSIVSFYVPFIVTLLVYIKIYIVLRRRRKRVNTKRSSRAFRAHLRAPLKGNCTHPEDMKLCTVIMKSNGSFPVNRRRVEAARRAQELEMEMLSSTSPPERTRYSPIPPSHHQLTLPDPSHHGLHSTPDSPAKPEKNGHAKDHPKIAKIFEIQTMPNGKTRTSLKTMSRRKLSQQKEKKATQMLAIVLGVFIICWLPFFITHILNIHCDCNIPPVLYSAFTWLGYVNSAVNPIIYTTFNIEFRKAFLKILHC
SMILES,Ki [1],Ki [2],EC50 [4],Emax at 10 µM [4],Metabolic stability in human hepatic microsome [5],"Kp, uu, brain [10]",IC50 [3],IC50 [6],IC50 [7],Ki [8],half-life [9]
Cn1ncc2c1CCCN(CCN1CCN(c3noc4ccccc34)CC1)C2=O [Example 80],,,,63%,0.012 mL/min/mg protein,,,55 nM,15400 nM,2.8 nM,10 h
"COc1cc2c(cn1)C(=O)N(CCN1CCN(c3nsc4ccccc34)CC1)CC2 [Example 2, 2-{2-[4-(1,2-Benzoisothiazol-3-yl)piperazin-1-yl]ethyl}-6-methoxy-3,4-dihydro-2,7-naphthyridin-1(2H)-one]",128 nM,0.03 nM,0.18 nM,69%,0.22 mL/min/mg protein,1.27,,,2500 nM,,
"Cc1cc2c(cn1)C(=O)N(CCN1CCN(c3noc4ccccc34)CC1)CC2 [Example 3, 2-{2-[4-(1,2-Benzoisoxazol-3-yl)piperazin-1-yl]ethyl}-6-methyl-3,4-dihydro-2,7-naphthyridin-1(2H)-one]",1260 nM,2.7 nM,10.1 nM,69%,<0.01 mL/min/mg protein,,,,7900 nM,,> 30 h

# Second part, led by results:
Ki [1],Ki [2],EC50 [4],Emax at 10 µM [4],Metabolic stability in human hepatic microsome [5],"Kp, uu, brain [10]",SMILES,IC50 [3],IC50 [6],IC50 [7],Ki [8],half-life [9]
103 nM,0.57 nM,8.74 nM,46%,<0.05 mL/min/mg protein,,Cc1nn(C)c2c1C(=O)N(CCN1CCC(c3noc4ccccc34)CC1)CCC2 [Example 91],1800 nM,,,,
916 nM,6.3 nM,37 nM,49%,<0.01 mL/min/mg protein,,"Cc1ncc2c(n1)CCN(CCN1CCC(c3noc4ccccc34)CC1)C2=O [Example 88, 6-{2-[4-(1,2-Benzoisoxazol-3-yl)piperidin-1-yl]ethyl}-2-methyl-7,8-dihydropyrido[4,3-d]pyrimidin-5(6H)-one]",,,5600 nM,,> 23 h
267 nM,2.68 nM,35 nM,71%,0.017 mL/min/mg protein,,"Cc1c2c(nn1C)CCN(CCN1CCC(c3noc4ccccc34)CC1)C2=O [Example 37, 5-{2-[4-(1,2-Benzoisoxazol-3-yl)piperidin-1-yl]ethyl}-2,3-dimethyl-2,5,6,7-tetrahydro-4H-pyrazolo[4,3-c]pyridin-4-one]",,,1000 nM,,8 h
738 nM,5.19 nM,76.2 nM,43%,0.065 mL/min/mg protein,,Cc1nn(C)c2c1C(=O)N(CCN1CCN(c3noc4ccccc34)CC1)CCC2 [Example 92],> 10000 nM,,,,
